Measured values: ChEMBL document CHEMBL4359834 (J Med Chem, 2019)
Each block holds one compound with its values, some of them ahead of it. Calls of active or inactive are those of the source. The rule behind the calls is not given here.

What was measured:
[1] = target: Serine/threonine-protein kinase mTOR (Homo sapiens, UniProt P42345); assay: Displacement of Alexafluor labelled kinase tracer314 from recombinant human C-terminal GST-tagged mTOR (1360 to 2549 amino acids) expressed in insect cells incubated for 1 hr by FRET-based LanthaScreen Eu kinase binding assay
[2] = Inhibition of Class 1 PI3K/mTOR in human A2058 cells assessed as reduction in Akt phosphorylation at Ser473 residue incubated for 1 hr by InCell Western assay; assay type: cell-based; conditions: A2058, 1 h
cells = conditions: Homo sapiens, A2058, 1 h
Description: Inhibition of Class 1 PI3K/mTOR in human A2058 cells assessed as reduction in S6 phosphorylation at Ser235/236 residue incubated for 1 hr by InCell Western assay

[3] = target: T1, Phosphatidylinositol 4,5-bisphosphate 3-kinase catalytic subunit alpha isoform (Homo sapiens, UniProt P42336); assay: Displacement of Alexafluor labelled kinase tracer314 from recombinant N-terminal His6-tagged PI3K p110alpha (unknown origin) incubated for 1 hr by FRET-based LanthaScreen Eu kinase binding assay
[4] = Metabolic stability in human liver microsomes assessed as compound remaining after 30 mins; assay type: ADME, Microsome; conditions: read-out: Stability
[5] = Terminal half-life in C57BL/6J mouse thigh muscle at 50 mg/kg, po administered as single dose by LC-MS analysis; assay type: ADME, organism-based; conditions: read-out: beta t1/2 (converted)
[6] = AUC (0 to 8 hrs) in C57BL/6J mouse brain at 50 mg/kg, po administered as single dose by LC-MS analysis; assay type: ADME, organism-based; parameters: dose 50 mg/kg, time < 8 hr, route oral
A2058 [7] = assay: Inhibition of Class 1 PI3K/mTOR in human A2058 cells assessed as reduction in p70S6K phosphorylation incubated for 1 hr by InCell Western assay; assay type: cell-based
[8] = AUClast at steady state in male Beagle dog at 1 mg/kg/day, po after 4 weeks; assay type: ADME, organism-based, Canis lupus familiaris; conditions: in vivo
[9] = Toxicity in po dosed female Wistar rat; assay type: organism-based; conditions: in vivo
[10] = Half-life clearance in human hepatocytes; assay type: ADME, cell-based, Hepatocyte
[11] = Toxicity in po dosed male Wistar rat; assay type: organism-based; conditions: in vivo
[12] = Toxicity in BALB/c nude mouse assessed as effect on body weight at 25 mg/kg, po administered once daily starting from 17 days post inoculation and measured after 20 to 40 days post inoculation; assay type: organism-based; conditions: in vivo
[13] = AUC (0 to 8 hrs) in C57BL/6J mouse plasma at 50 mg/kg, po administered as single dose by LC-MS analysis; assay type: ADME, organism-based; parameters: dose 50 mg/kg, time < 8 hr, route oral
[14] = Cmax in C57BL/6J mouse plasma at 50 mg/kg, po administered as single dose after 30 mins by LC-MS analysis; assay type: ADME, organism-based; parameters: dose 50 mg/kg, route oral
[15] = AUClast at steady state in female Beagle dog at 3 mg/kg/day, po after 4 weeks; assay type: ADME, organism-based, Canis lupus familiaris; conditions: in vivo
[16] = AUC (0 to 8 hrs) in C57BL/6J mouse thigh muscle at 50 mg/kg, po administered as single dose by LC-MS analysis; assay type: ADME, organism-based; parameters: dose 50 mg/kg, time < 8 hr, route oral
[17] = AUC (0 to 8 hrs) at steady state in female Wistar rat at 0.5 mg/kg, po after 4 weeks; assay type: ADME, organism-based; parameters: time < 8 hr, dose 0.5 mg/kg, route oral; conditions: in vivo
[18] = Half-life in mouse hepatocytes; assay type: ADME, cell-based, Hepatocyte
[19] = Cmax in C57BL/6J mouse thigh muscle at 50 mg/kg, po administered as single dose after 30 mins by LC-MS analysis; assay type: ADME, organism-based; parameters: dose 50 mg/kg, route oral
[20] = Clearance in C57BL/6J mouse plasma at 50 mg/kg, po administered as single dose by LC-MS analysis; assay type: ADME, organism-based
[21] = Toxicity in po dosed male Beagle dog; assay type: organism-based, Canis lupus familiaris; conditions: in vivo
OVCAR-3 = assay: Antitumor activity against human OVCAR3 cells xenografted in BALB/c nude mouse assessed as reduction in tumor growth at 25 mg/kg, po administered once daily starting from 17 days post inoculation and measured thrice per week; assay type: functional, organism-based
Homo sapiens = organism: Homo sapiens; assay: Inhibition of Class 1 PI3K/mTOR in human SKOV3 cells assessed as reduction in Akt phosphorylation at Ser473 residue incubated for 1 hr by InCell Western assay; assay type: cell-based
[22] = Terminal half-life in C57BL/6J mouse brain at 50 mg/kg, po administered as single dose by LC-MS analysis; assay type: ADME, organism-based; conditions: read-out: beta t1/2 (converted)
Mus musculus [23] = assay: In vivo inhibition of Class 1 PI3K/mTOR in C57BL/6J mouse assessed as increase in plasma glucose level at 50 mg/kg, po administered as single dose after 10 mins to 1 hr by colorimetric assay; assay type: functional, organism-based
[24] = Half-life in rat hepatocytes; assay type: ADME, cell-based, Hepatocyte
[25] = AUC (0 to 8 hrs) at steady state in male Wistar rat at 1 mg/kg/day, po after 4 weeks; assay type: ADME, organism-based; parameters: dose 1 mg/kg/day, time < 8 hr, route oral; conditions: in vivo
[26] = Half-life in dog hepatocytes; assay type: ADME, cell-based, Canis lupus familiaris, Hepatocyte
[27] = Fraction unbound in rat brain; assay type: ADME, tissue-based
[28] = Intrinsic clearance in mouse hepatocytes assessed per 10^6 cells; assay type: ADME, cell-based, Hepatocyte; conditions: read-out: CLH
A2058 [29] = assay: Inhibition of Class 1 PI3K/mTOR in human A2058 cells assessed as reduction in GSK3 phosphorylation incubated for 1 hr by InCell Western assay; assay type: cell-based
A2058 [30] = assay: Antiproliferative activity against human A2058 cells at 5 to 0.02 uM after 72 hrs by […] staining based assay; assay type: functional, cell-based
[31] = Terminal half-life in C57BL/6J mouse plasma at 50 mg/kg, po administered as single dose by LC-MS analysis; assay type: ADME, organism-based; conditions: read-out: beta t1/2 (converted)
[32] = target: PI3-kinase p110-alpha/p85-alpha (Homo sapiens) (UniProt P27986+P42336); assay: Inhibition of Wortmannin covalent binding to N-terminal His-tagged recombinant human PI3K p110alpha/p85alpha Lys802 expressed in baculovirus expression system preincubated for 1 hr followed by Wortmannin addition and measured after 20 mins by SDS-PAGE based immunoblot assay
[33] = Tmax in C57BL/6J mouse brain at 50 mg/kg, po administered as single dose by LC-MS analysis; assay type: ADME, organism-based
[34] = Metabolic stability in dog liver microsomes assessed as compound remaining after 30 mins; assay type: ADME, Canis lupus familiaris, Microsome; conditions: read-out: Stability
[35] = Metabolic stability in mouse liver microsomes assessed as compound remaining after 30 mins; assay type: ADME, Microsome; conditions: read-out: Stability
[36] = Tmax in C57BL/6J mouse thigh muscle at 50 mg/kg, po administered as single dose by LC-MS analysis; assay type: ADME, organism-based
Mus musculus [37] = assay: In vivo inhibition of Class 1 PI3K/mTOR in C57BL/6J mouse assessed as increase in plasma glucose level at 50 mg/kg, po administered as single dose after 2 hr by colorimetry based immunoassay; assay type: functional, organism-based
[38] = Intrinsic clearance in dog hepatocytes assessed per 10^6 cells; assay type: ADME, cell-based, Canis lupus familiaris, Hepatocyte; conditions: read-out: CLH
[39] = Intrinsic clearance in rat hepatocytes assessed per 10^6 cells; assay type: ADME, cell-based, Hepatocyte; conditions: read-out: CLH
[40] = Metabolic stability in rat liver microsomes assessed as compound remaining after 30 mins; assay type: ADME, Microsome; conditions: read-out: Stability
A2058 [41] = assay: Inhibition of Class 1 PI3K/mTOR in human A2058 cells assessed as reduction in Akt phosphorylation incubated for 1 hr by InCell Western assay; assay type: cell-based
[42] = Toxicity in po dosed female Beagle dog; assay type: organism-based, Canis lupus familiaris; conditions: in vivo
[43] = Intrinsic clearance in human hepatocytes assessed per 10^6 cells; assay type: ADME, cell-based, Hepatocyte; conditions: read-out: CLH
[44] = target: T1, Phosphatidylinositol 4,5-bisphosphate 3-kinase catalytic subunit alpha isoform; assay: Binding affinity to wild-type human partial length PIK3CA (R108 to N1068 residues) expressed in mammalian expression system by quantitative PCR based KINOMEscan assay
[45] = Cmax in C57BL/6J mouse brain at 50 mg/kg, po administered as single dose after 30 mins by LC-MS analysis; assay type: ADME, organism-based; parameters: dose 50 mg/kg, route oral
[46] = target: Phosphatidylinositol 4,5-bisphosphate 3-kinase catalytic subunit gamma isoform (Homo sapiens, UniProt P48736); assay: Binding affinity to wild-type human partial length PIK3CG (S144 to A1102 residues) expressed in mammalian expression system by quantitative PCR based KINOMEscan assay
SK-OV-3 = assay: Antiproliferative activity against human SKOV3 cells at 5 to 0.02 uM after 72 hrs by […] staining based assay; assay type: functional, cell-based
[47] = Tmax in C57BL/6J mouse plasma at 50 mg/kg, po administered as single dose by LC-MS analysis; assay type: ADME, organism-based

T1 sequence (P42336 whole entry, canonical isoform): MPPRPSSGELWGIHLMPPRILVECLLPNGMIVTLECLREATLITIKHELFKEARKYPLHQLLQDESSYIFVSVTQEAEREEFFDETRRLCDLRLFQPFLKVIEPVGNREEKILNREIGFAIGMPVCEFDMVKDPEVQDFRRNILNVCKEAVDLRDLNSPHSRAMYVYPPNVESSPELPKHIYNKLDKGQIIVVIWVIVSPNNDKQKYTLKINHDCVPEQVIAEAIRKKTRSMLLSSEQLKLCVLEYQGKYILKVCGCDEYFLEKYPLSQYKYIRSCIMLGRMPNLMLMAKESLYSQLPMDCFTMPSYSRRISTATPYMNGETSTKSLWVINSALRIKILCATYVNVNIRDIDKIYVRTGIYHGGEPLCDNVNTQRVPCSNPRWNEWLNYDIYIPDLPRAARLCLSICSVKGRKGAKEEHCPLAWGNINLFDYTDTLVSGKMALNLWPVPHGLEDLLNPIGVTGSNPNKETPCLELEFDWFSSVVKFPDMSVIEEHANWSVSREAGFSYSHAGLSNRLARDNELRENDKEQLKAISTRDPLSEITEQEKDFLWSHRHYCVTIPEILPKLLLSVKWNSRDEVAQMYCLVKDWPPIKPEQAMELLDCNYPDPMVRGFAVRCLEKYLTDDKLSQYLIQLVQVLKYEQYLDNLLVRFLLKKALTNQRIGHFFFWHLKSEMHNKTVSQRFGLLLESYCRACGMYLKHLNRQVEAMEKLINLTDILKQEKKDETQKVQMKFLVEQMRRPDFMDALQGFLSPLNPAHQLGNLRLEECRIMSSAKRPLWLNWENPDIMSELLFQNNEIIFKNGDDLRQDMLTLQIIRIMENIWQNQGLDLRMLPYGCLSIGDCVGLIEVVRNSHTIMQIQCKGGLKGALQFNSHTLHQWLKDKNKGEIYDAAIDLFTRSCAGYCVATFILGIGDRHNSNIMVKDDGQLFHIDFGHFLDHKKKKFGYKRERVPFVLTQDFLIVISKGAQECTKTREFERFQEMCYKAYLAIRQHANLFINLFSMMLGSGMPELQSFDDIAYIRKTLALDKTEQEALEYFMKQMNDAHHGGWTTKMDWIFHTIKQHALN
Sequence of Phosphatidylinositol 4,5-bisphosphate 3-kinase catalytic subunit gamma isoform (P48736 whole entry, the tested form may be a part, canonical isoform): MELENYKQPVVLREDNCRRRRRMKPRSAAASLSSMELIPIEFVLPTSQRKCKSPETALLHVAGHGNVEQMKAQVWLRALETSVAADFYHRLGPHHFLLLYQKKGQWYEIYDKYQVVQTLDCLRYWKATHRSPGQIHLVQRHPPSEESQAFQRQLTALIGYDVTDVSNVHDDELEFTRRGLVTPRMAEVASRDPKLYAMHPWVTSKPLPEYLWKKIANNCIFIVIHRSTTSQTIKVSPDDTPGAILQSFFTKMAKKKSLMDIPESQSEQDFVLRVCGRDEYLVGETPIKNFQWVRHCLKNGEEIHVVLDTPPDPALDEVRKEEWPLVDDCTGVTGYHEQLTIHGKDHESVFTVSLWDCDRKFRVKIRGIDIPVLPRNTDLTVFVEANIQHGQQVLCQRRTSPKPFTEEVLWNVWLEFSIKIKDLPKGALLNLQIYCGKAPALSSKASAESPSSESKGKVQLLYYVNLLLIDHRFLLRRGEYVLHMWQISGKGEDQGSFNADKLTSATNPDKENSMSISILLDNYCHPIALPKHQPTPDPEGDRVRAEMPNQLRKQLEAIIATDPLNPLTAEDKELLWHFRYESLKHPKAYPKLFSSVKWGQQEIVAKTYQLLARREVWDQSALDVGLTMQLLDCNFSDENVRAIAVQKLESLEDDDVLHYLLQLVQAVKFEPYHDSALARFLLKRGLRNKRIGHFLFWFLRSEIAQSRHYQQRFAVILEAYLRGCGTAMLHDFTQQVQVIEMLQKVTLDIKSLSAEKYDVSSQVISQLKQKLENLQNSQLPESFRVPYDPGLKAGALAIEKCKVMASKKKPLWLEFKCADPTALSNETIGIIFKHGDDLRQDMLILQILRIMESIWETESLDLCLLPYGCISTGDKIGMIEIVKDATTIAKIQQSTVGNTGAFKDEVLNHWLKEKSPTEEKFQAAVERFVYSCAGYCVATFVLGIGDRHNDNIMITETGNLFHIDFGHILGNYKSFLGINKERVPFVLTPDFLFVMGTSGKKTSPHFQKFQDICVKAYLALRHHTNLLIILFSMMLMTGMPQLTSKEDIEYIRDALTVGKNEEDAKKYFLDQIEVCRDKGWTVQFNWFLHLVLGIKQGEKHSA

Compound: C[C@H]1COCCN1c1nc(-c2cnc(N)cc2C(F)(F)F)nc(N2CCOC[C@@H]2C)n1
Ki [1]: 137 nM | IC50 [2]: 248 nM | Ki [3]: 6.8 nM | IC50 (cells): 283 nM

Compound: C[C@@H]1COCCN1c1nc(-c2cnc(N)cc2C(F)(F)F)nc(N2CCOC[C@H]2C)n1
Ki [1]: 171 nM | IC50 [2]: 1700 nM | Ki [3]: 684 nM | IC50 (cells): 1120 nM

Compound: C[C@H]1COC[C@H](C)N1c1nc(-c2cnc(N)cc2C(F)(F)F)nc(N2CCOCC2)n1
Ki [1]: 59.2 nM | IC50 [2]: 100 nM | Ki [3]: 15.2 nM | IC50 (cells): 126 nM

Compound: C[C@H]1COCCN1c1cc(-c2cnc(N)nc2C(F)F)nc(N2CCOCC2)n1
Ki [1]: 192 nM | IC50 [2]: 99.6 nM | Ki [3]: 2 nM | IC50 (cells): 387 nM

Compound: C[C@@H]1COC[C@@H](C)N1c1nc(-c2cnc(N)cc2C(F)(F)F)nc(N2CCOCC2)n1
Ki [1]: 64.5 nM | IC50 [2]: 435 nM | Ki [3]: 88.9 nM | IC50 (cells): 457 nM

Compound: C[C@@H]1COC[C@@H](C)N1c1nc(-c2cnc(N)cc2C(F)(F)F)nc(N2[C@H](C)COC[C@H]2C)n1
Ki [1]: 1890 nM | IC50 [2]: > 20000 nM | Ki [3]: > 20000 nM | IC50 (cells): 14500 nM

These reach a lower Ki [1]. Values come first.

Ki [1]: 43.1 nM | IC50 [2]: 420 nM | Ki [3]: 19.9 nM | IC50 (cells): 156 nM
Compound: Nc1cc(C(F)(F)F)c(-c2nc(N3CCOCC3)nc(N3C4CCC3COC4)n2)cn1

Ki [1]: 42.3 nM | IC50 [2]: 614 nM | Ki [3]: 13.7 nM | IC50 (cells): 766 nM
Compound: C[C@H]1COCCN1c1cc(-c2cnc(N)cc2C(F)F)nc(N2CCOCC2)n1

Ki [1]: 25.5 nM | IC50 [2]: 196 nM | Ki [3]: 8.3 nM | IC50 (cells): 89.8 nM
Compound: C[C@H]1COCCN1c1nc(-c2cnc(N)cc2C(F)(F)F)nc(N2CCOCC2)n1

Ki [1]: 10.6 nM | IC50 [2]: 32.4 nM | IC50 (cells): 63.9 nM
Compound: C[C@H]1COCCN1c1nc(-c2cnc(N)nc2C(F)F)nc(N2CCOCC2)n1

Ki [1]: 10 nM | IC50 [2]: 146 nM | IC50 (cells): 125 nM
Compound: C[C@H]1COCCN1c1nc(-c2cnc(N)cc2C(F)F)cc(N2CCOCC2)n1

remaining at 0.5 h [4]: 81.5% | half-life [5]: 3.5 h | Ki [1]: 7.4 nM | AUC(0-t) at 8 h [6]: 46500 ng·h/mL | AUC(0-t) at 672 h [8]: 127 ng·h/mL | half-life [10]: 4.17 h | AUC(0-t) at 8 h [13]: 27900 ng·h/mL | Cmax [14]: 7800 ng/mL | AUC(0-t) at 672 h [15]: 1070 ng·h/mL | AUC(0-t) at 8 h [16]: 39200 ng·h/mL | AUC at 8 h [17]: 599 ng·h/mL | half-life [18]: 2.37 h | Cmax [19]: 11900 ng/mL | CL/F [20]: 20.9 mL/min/kg | IC50 [2]: 62.2 nM | half-life [22]: 4.8 h | half-life [24]: 3.2 h | AUC at 8 h [25]: 335 ng·h/mL | half-life [26]: 2.37 h | fraction unbound [27]: 0.08 | hepatocyte CLint [28]: 11 µL/min/1e6 cells | half-life [31]: 4.7 h | Ki [3]: 11.1 nM | inhibition [32]: Active | Tmax [33]: 0.5 h | remaining at 0.5 h [34]: 97.4% | remaining at 0.5 h [35]: 73.2% | Tmax [36]: 0.5 h | IC50 (cells): 61.9 nM | hepatocyte CLint [38]: 10 µL/min/1e6 cells | hepatocyte CLint [39]: 7 µL/min/1e6 cells | remaining at 0.5 h [40]: 106% | hepatocyte CLint [43]: 6 µL/min/1e6 cells | Kd [44]: 0.84 nM | Cmax [45]: 12600 ng/mL | Kd [46]: 10 nM | Tmax [47]: 0.5 h
Compound: C[C@H]1COCCN1c1nc(-c2cnc(N)cc2C(F)F)nc(N2CCOCC2)n1
inhibition (A2058 [7]): Active | NOAEL [9]: 0.5 mg/kg | NOAEL [11]: 1 mg/kg/day | Activity [12]: Non-Toxic | NOAEL [21]: 1 mg/kg/day | Activity (OVCAR-3): Active | inhibition (Homo sapiens): Active | inhibition (Mus musculus [23]): Active | inhibition (A2058 [29]): Active | Activity (A2058 [30]): Active | inhibition (Mus musculus [37]): Active | inhibition (A2058 [41]): Active | NOAEL [42]: 3 mg/kg/day | Activity (SK-OV-3): Active
